# Source: patent US4740233A, “Substituted 1,2,4-triazolo[1,5-a]-pyrimidine-2-sulfonamides and compositions and methods of controlling undesired vegetation and suppressing the nitrification of ammonium nitrogen in soil” (The Dow Chemical Company, priority 1986, dated 1988)
# Legend:
# [1] = tested on: yellow foxtail; experiment: Postemergent control of plant species; format: in vivo, Setaria lutescens; settings: for pest or weed control at 500 ppm: Setaria, post-emergence, 336 h, read-out: percent postemergent control
# Summary of the method: (§1)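 Each compound is dissolved in acetone, mixed with an equal volume of 0.1% surfactant water, and sprayed on plants grown to 2-4 leaves in nutrient soil. Treated and untreated beds sit under identical greenhouse temperature and light for roughly two weeks before growth reduction is rated.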
# [2] = tested on: crabgrass; experiment: Postemergent control of plant species; format: in vivo, Digitaria spp.; settings: for pest or weed control at 500 ppm: Digitaria sanguinalis, post-emergence, 336 h, read-out: percent postemergent control
# Summary of the method: as §1
# [3] = tested on: wheat; experiment: Postemergent control of plant species; format: in vivo, Triticum aestivum; settings: for plant injury at 500 ppm: Triticum aestivum, post-emergence, 336 h, read-out: percent postemergent control
# Summary of the method: as §1
# [4] = tested on: corn; experiment: Postemergent control of plant species; format: in vivo, Zea mays; settings: for plant injury at 500 ppm: Zea mays, post-emergence, 336 h, read-out: percent postemergent control
# Summary of the method: as §1
# [5] = tested on: jimsonweed; experiment: Postemergent control of plant species; format: in vivo, Datura stramonium; settings: for pest or weed control at 500 ppm: Datura stramonium, post-emergence, 336 h, read-out: percent postemergent control
# Summary of the method: as §1
# [6] = tested on: yellow nutsedge; experiment: Postemergent control of plant species; format: in vivo, Cyperus esculentus; settings: for pest or weed control at 500 ppm: Cyperus, post-emergence, 336 h, read-out: percent postemergent control
# Summary of the method: as §1
# [7] = tested on: johnson grass; experiment: Postemergent control of plant species; format: in vivo, Sorghum halepense; settings: for pest or weed control at 500 ppm: Sorghum halepense, post-emergence, 336 h, read-out: percent postemergent control
# Summary of the method: as §1
# [8] = tested on: barnyardgrass; experiment: Postemergent control of plant species; format: in vivo, Echinochloa crusgalli; settings: for pest or weed control at 500 ppm: Echinochloa crus-galli, post-emergence, 336 h, read-out: percent postemergent control
# Summary of the method: as §1
# [9] = tested on: sprangletop; experiment: Control of aquatic plant species (paddy water); format: in vivo, Leptochloa filiformis; settings: nine days
# Summary of the method: (§2)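 First, young plants (1-2 inch stage) were set into about 2 inches of soil. Next, pots were flooded to about 1 inch depth. Then acetone concentrate was injected into the water at varying volumes to give the intended concentration. Finally, control was assessed after nine days.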
# [10] = tested on: barnyardgrass; experiment: Control of aquatic plant species (paddy water); format: in vivo, Echinochloa crusgalli; settings: nine days
# Experimental: In testing for such utility, the plant species to be tested were transplanted into 16 oz. containers into about 2 inches of soil when they were in the 1-2 inch stage and then flooded to a depth of about 1 inch. An acetone concentrate of the chemical to be tested was then injected into the paddy water, the volume injected being varied as desired to provide the desired concentration. Percent control was evaluated nine days after application.
# [11] = tested on: nitrification of ammonium nitrogen; experiment: Suppression of nitrification of ammonium nitrogen in soil; settings: 27° C.
# Summary of the method: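 Soil (20 g) moistened to its 1/3 bar tension value, mixed with test chemical and incubated sealed for two weeks at 27° C. Nitrate extracted with ammonium sulfate solution and measured by nitrate-specific ion electrode; value given as % NH4-N remaining.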
# [12] = tested on: sugar beet; experiment: Postemergent control of plant species; format: in vivo, Beta saccharifera; settings: for plant injury at 500 ppm: Beta vulgaris, post-emergence, 336 h, read-out: percent postemergent control
# Summary of the method: as §1
# [13] = tested on: soybean; experiment: Postemergent control of plant species; format: in vivo, Glycine max.; settings: for plant injury at 500 ppm: Glycine max, post-emergence, 336 h, read-out: percent postemergent control
# Summary of the method: as §1
# [14] = tested on: cocklebur; experiment: Postemergent control of plant species; format: in vivo, Xanthium spp.; settings: for pest or weed control at 500 ppm: Xanthium strumarium, post-emergence, 336 h, read-out: percent postemergent control
# Summary of the method: as §1
# [15] = tested on: rice; experiment: Postemergent control of plant species; format: in vivo, Oryza sativa
# Summary of the method: as §1
# [16] = tested on: rice; experiment: Control of aquatic plant species (paddy water); format: in vivo, Oryza sativa; settings: nine days
# Summary of the method: as §2
# [17] = tested on: pigweed; experiment: Postemergent control of plant species; format: in vivo, Amaranthus spp.; settings: for pest or weed control at 500 ppm: Amaranthus retroflexus, post-emergence, 336 h, read-out: percent postemergent control
# Summary of the method: as §1
# [18] = tested on: rape; experiment: Postemergent control of plant species; format: in vivo, Brassica napus; settings: for plant injury at 500 ppm: Brassica napus, post-emergence, 336 h, read-out: percent postemergent control
# Summary of the method: as §1
# [19] = tested on: yellow nutsedge; experiment: Control of aquatic plant species (paddy water); format: in vivo, Cyperus esculentus; settings: nine days
# Summary of the method: as §2
# [20] = tested on: wild oats; experiment: Postemergent control of plant species; format: in vivo, Avena fatua; settings: for pest or weed control at 500 ppm: Avena fatua, post-emergence, 336 h, read-out: percent postemergent control
# Summary of the method: as §1
# [21] = tested on: sorghum; experiment: Postemergent control of plant species; format: in vivo, Sorghum vulgare; settings: for plant injury at 500 ppm: Sorghum, post-emergence, 336 h, read-out: percent postemergent control
# Summary of the method: as §1
# [22] = tested on: cotton; experiment: Postemergent control of plant species; format: in vivo, Gossypium spp.; settings: for plant injury at 500 ppm: Gossypium hirsutum, post-emergence, 336 h, read-out: percent postemergent control
# Summary of the method: as §1
# [23] = tested on: velvetleaf; experiment: Postemergent control of plant species; format: in vivo, Abutilon theophrasti; settings: for pest or weed control at 500 ppm: Abutilon theophrasti, post-emergence, 336 h, read-out: percent postemergent control
# Summary of the method: as §1
# [24] = tested on: annual morning glory; experiment: Postemergent control of plant species; format: in vivo, Ipomoea spp.; settings: for pest or weed control at 500 ppm: Ipomoea, post-emergence, 336 h, read-out: percent postemergent control
# Summary of the method: as §1
compound,measurement,setting,value
"Cc1cc(C)n2nc(S(=O)(=O)Nc3c(C)cccc3C)nc2n1 [Compound 32, 5,7-dimethyl-N-(2,6-dimethylphenyl)-1,2,4-triazolo[1,5-a]pyrimidine-2-sulfonamide]",pest or weed control at 500 ppm,[1],10%
same,pest or weed control at 500 ppm,[2],10%
same,plant injury at 500 ppm,[3],30%
same,plant injury at 500 ppm,[4],0%
same,pest or weed control at 500 ppm,[5],60%
same,pest or weed control at 500 ppm,[6],0%
same,pest or weed control at 500 ppm,[7],95%
same,pest or weed control at 500 ppm,[8],0%
same,pest or weed control at 500 g/ha,"[9]; Leptochloa filiformis, 216 h, 0.5 Kg/Ha, read-out: Percent control",95%
same,pest or weed control at 500 g/ha,"[10]; Echinochloa crus-galli, 216 h, 0.5 Kg/Ha, read-out: Percent control",97%
same,% NH4-N Remaining After 2 Weeks Incubation,[11]; 0.01 ppm,0%
same,% NH4-N Remaining After 2 Weeks Incubation,[11]; 0.1 ppm,33%
same,% NH4-N Remaining After 2 Weeks Incubation,[11]; 1 ppm,82%
same,% NH4-N Remaining After 2 Weeks Incubation,[11]; 10 ppm,100%
same,plant injury at 500 ppm,[12],30%
same,plant injury at 500 ppm,[13],15%
same,pest or weed control at 500 ppm,[14],15%
same,plant injury at 500 ppm,"[15]; Oryza sativa, post-emergence, 336 h, read-out: percent postemergent control",10%
same,pest or weed control at 500 g/ha,"[16]; Oryza sativa, 216 h, 0.5 Kg/Ha, read-out: Percent control",93%
same,pest or weed control at 500 ppm,[17],0%
same,plant injury at 500 ppm,[18],0%
same,pest or weed control at 500 g/ha,"[19]; Cyperus, 216 h, 0.5 Kg/Ha, read-out: Percent control",95%
same,pest or weed control at 500 ppm,[20],0%
same,plant injury at 500 ppm,[21],0%
same,plant injury at 500 ppm,[22],20%
same,pest or weed control at 500 ppm,[23],50%
same,pest or weed control at 500 ppm,[24],0%
"Cc1nc2nc(S(=O)(=O)Nc3c(Cl)cccc3Cl)nn2c2c1CCC2 [Compound 108, 6,7-cyclopentano-5-methyl-N-(2,6-dichlorophenyl)-1,2,4-triazolo[1,5-a]pyrimidine-2-sulfonamide]",percent postemergent control,[1]; 500 ppm,0%
same,percent postemergent control,[2]; 500 ppm,0%
same,percent postemergent control,[3]; 500 ppm,60%
same,percent postemergent control,[4]; 500 ppm,80%
same,percent postemergent control,[5]; 500 ppm,30%
same,percent postemergent control,[6]; 500 ppm,35%
same,percent postemergent control,[7]; 500 ppm,100%
same,percent postemergent control,[8]; 500 ppm,100%
same,Percent control,[9]; 1.0 Kg/Ha,97%
same,Percent control,[10]; 1.0 Kg/Ha,97%
same,% NH4-N Remaining After 2 Weeks Incubation,[11]; 0.01 ppm,43%
same,% NH4-N Remaining After 2 Weeks Incubation,[11]; 0.1 ppm,69%
same,% NH4-N Remaining After 2 Weeks Incubation,[11]; 1 ppm,84%
same,% NH4-N Remaining After 2 Weeks Incubation,[11]; 10 ppm,90%
same,percent postemergent control,[12]; 500 ppm,70%
same,percent postemergent control,[13]; 500 ppm,75%
same,percent postemergent control,[14]; 500 ppm,80%
same,percent postemergent control,[15]; 500 ppm,0%
same,Percent control,[16]; 1.0 Kg/Ha,97%
same,percent postemergent control,[17]; 500 ppm,0%
same,percent postemergent control,[18]; 500 ppm,40%
same,Percent control,[19]; 1.0 Kg/Ha,90%
same,percent postemergent control,[20]; 500 ppm,0%
same,percent postemergent control,[21]; 500 ppm,80%
same,percent postemergent control,[22]; 500 ppm,70%
same,percent postemergent control,[23]; 500 ppm,90%
same,percent postemergent control,[24]; 500 ppm,10%
"COC(=O)c1ccccc1NS(=O)(=O)c1nc2nc(C)cc(C)n2n1 [Compound 10, methyl N-(5,7-dimethyl-1,2,4-triazolo[1,5-a]pyrimidine-2-sulfonyl)anthranilate]",pest or weed control at 500 ppm,[1],0%
same,pest or weed control at 500 ppm,[2],0%
same,plant injury at 500 ppm,[3],0%
same,plant injury at 500 ppm,[4],0%
same,pest or weed control at 500 ppm,[5],0%
same,pest or weed control at 500 ppm,[6],0%
same,pest or weed control at 500 ppm,[7],0%
same,pest or weed control at 500 ppm,[8],0%
same,pest or weed control at 1000 g/ha,"[9]; Leptochloa filiformis, 216 h, 1.0 Kg/Ha, read-out: Percent control",50%
same,pest or weed control at 1000 g/ha,"[10]; Echinochloa crus-galli, 216 h, 1.0 Kg/Ha, read-out: Percent control",90%
same,% NH4-N Remaining After 2 Weeks Incubation,[11]; 0.01 ppm,0%
same,% NH4-N Remaining After 2 Weeks Incubation,[11]; 0.1 ppm,0%
same,% NH4-N Remaining After 2 Weeks Incubation,[11]; 1 ppm,27%
same,% NH4-N Remaining After 2 Weeks Incubation,[11]; 10 ppm,70%
same,plant injury at 500 ppm,[12],60%
same,plant injury at 500 ppm,[13],20%
same,pest or weed control at 500 ppm,[14],15%
same,pest or weed control at 1000 g/ha,"[16]; Oryza sativa, 216 h, 1.0 Kg/Ha, read-out: Percent control",93%
same,pest or weed control at 500 ppm,[17],20%
same,plant injury at 500 ppm,[18],10%
same,pest or weed control at 1000 g/ha,"[19]; Cyperus, 216 h, 1.0 Kg/Ha, read-out: Percent control",90%
same,pest or weed control at 500 ppm,[20],0%
same,plant injury at 500 ppm,[21],0%
same,plant injury at 500 ppm,[22],0%
same,pest or weed control at 500 ppm,[23],0%
same,pest or weed control at 500 ppm,[24],0%
